Test results reported in US12138329B2, “Gel cleansing agent” (SHISEIDO HONEYCAKE INDUSTRIES CO., LTD., priority 2019, dated 2024).

Assay: pH of 1% aqueous solution
Assay type: physicochemical
Details: polyoxyethylene alkyl ether carboxylate

Substance: NaOH
- pH of 1% aqueous solution, 60% neutralization (60% neutralization): about 5.7
- pH of 1% aqueous solution, 90% neutralization (90% neutralization): about 6.5
- pH of 1% aqueous solution, 100% neutralization (100% neutralization): about 7.8
